Measured values from patent publication US20220387375A1, “TRPV1 ACTIVATION-MODULATING COMPLEX MIXTURES OF CANNABINOIDS AND/OR TERPENES” (GBS Global Biopharma, Inc., priority 2018, published 2022).

Target: T1, TRPV1 (Rattus norvegicus, UniProt O35433)
T1 construct: FLAG; expressed in transfected cells
Test: Bulk calcium assay (Fluo-4) in HEK-TRPV1 overexpressing cells
Type: cell-based
Conditions: for mean maximal Ca^2+ signal RFU achieved 0-180 s (SD), TRPV1: bulk calcium assay; for calcium fluxes: dosing concentrations of 30-50 μM; for initiation of a calcium flux: single dose 10 μM, 1 mM external Ca2+
Protocol: Cells were washed and incubated with 0.2 micromolar Fluo-4 for 30 minutes at 37° C. in a standard modified Ringer's solution of the following composition (in mM): NaCl 145, KCl 2.8, CsCl 10, CaCl2 10, MgCl2 2, glucose 10, Hepes·NaOH 10, pH 7.4, 330 mOsm. Cells were transferred to 96-well plates at 50,000 cells/well and stimulated as indicated. Calcium signals were acquired using a Flexstation 3 (Molecular Devices, Sunnydale, USA). Data was analyzed using SoftMax® Pro 5 (Molecular Devices). Where indicated, nomically calcium-free external conditions were achieved by the preparation of 0 mM CaCl2 Ringer solution containing 1 mM EGTA.
The cell culture system described in U.S. patent application Ser. No. 15/986,316 was used to test the TRPV1-mediated calcium response to various terpenes. The HEK293 cell line was stably transfected with the pcDNA6TR (Invitrogen, CA) plasmid (encoding the tetracycline-sensitive TREx repressor protein), and was maintained in DMEM+10% fetal bovine serum (inactivated at 55° C. for 1 h)+2 mM glutamine in humidified 5% CO2 atmosphere at 37° C. Selection pressure on the TRex 293 cells was maintained by continuous culture in 10 μg/ml Blasticidin (Sigma, St Louis, Mo.).
For production of TRex HEK293 cells with inducible expression of TRPV1, parental cells were electroporated with the rat TRPV1 cDNA in the pcDNA4TO vector and clonal cell lines were selected by limiting dilution in the presence of 400 μg/ml zeocin (Invitrogen, CA). TRPV1 expression was induced using 1 μg/ml tetracycline for 16 h at 37° C. Stable lines were screened for inducible protein expression using anti-FLAG Western blot, and inducible expression was confirmed.
Calcium responses mediated by TRPV1 were tested by calcium assay in the cell culture system. Cells were washed and incubated with 0.2 μM fluo-4 acetoxymethyl ester (“Fluo-4”) for 30 minutes at 37° C. in a standard modified Ringer's solution of the following composition (in mM): NaCl 145, KCl2.8, CsCl10, CaCl2 10, MgCl2 2, glucose 10, Hepes·NaOH 10, pH 7.4, 330 mOsm. Cells were transferred to 96-well plates at 50,000 cells/well and stimulated as indicated. The terpenes used were alpha-bisabool, alpha-pinene, myrcene, camphene, linalool, ocimene, humulene, beta-caryophyllene, beta-pinene, limonene, and nerolidol. The terpenes were diluted in DMSO and added to the wells to a final concentration of 10 μM. Vehicle (DMSO) alone was run as a negative control and subtracted from the terpene traces. Calcium signals were acquired using a Flexstation 3 (Molecular Devices, Sunnydale, USA). Data was analyzed using SoftMax® Pro 5 (Molecular Devices).
Calcium responses mediated by TRPA1, TRPM8, TRPV2, and TRPV1 were tested by calcium assay in the cell culture system. Cells were washed and incubated with 0.2 μM fluo-4 acetoxymethyl ester (“Fluo-4”) for 30 minutes at 37° C. in a standard modified Ringer's solution of the following composition (in mM): NaCl 145, KCl 2.8, CsCl 10, CaCl2 10, MgCl2 2, glucose 10, Hepes·NaOH 10, pH 7.4, 330 mOsm. Cells were transferred to 96-well plates at 50,000 cells/well and stimulated with 10 μM myrcene diluted in DMSO. Vehicle (DMSO) was used as a negative control. Vehicle traces were subtracted from the myrcene traces for each cell line.
As shown in FIGS. 16A-H, a variety of cannabinoids were capable of initiating Ca^2+ fluxes in HEK-TRPV1 overexpressing cells, except for cannabigerol and cannabinol. Comparative responses to a single dose (10 μM concentration) of a variety of cannabinoids were made in the presence of 1 mM external Ca^2+, which are population-based, or bulk Ca^2+, measurements with each trace representing averaged triplicates of 100,000 cells per sample. […] For each of the cannabinoid compounds, dose responses at the population level were performed. […] The lower limit of detectable calcium responses in this system varied from 10-100 nM (CBDV, CBGA) to 1-10 μM.

T1 sequence (O35433 whole entry): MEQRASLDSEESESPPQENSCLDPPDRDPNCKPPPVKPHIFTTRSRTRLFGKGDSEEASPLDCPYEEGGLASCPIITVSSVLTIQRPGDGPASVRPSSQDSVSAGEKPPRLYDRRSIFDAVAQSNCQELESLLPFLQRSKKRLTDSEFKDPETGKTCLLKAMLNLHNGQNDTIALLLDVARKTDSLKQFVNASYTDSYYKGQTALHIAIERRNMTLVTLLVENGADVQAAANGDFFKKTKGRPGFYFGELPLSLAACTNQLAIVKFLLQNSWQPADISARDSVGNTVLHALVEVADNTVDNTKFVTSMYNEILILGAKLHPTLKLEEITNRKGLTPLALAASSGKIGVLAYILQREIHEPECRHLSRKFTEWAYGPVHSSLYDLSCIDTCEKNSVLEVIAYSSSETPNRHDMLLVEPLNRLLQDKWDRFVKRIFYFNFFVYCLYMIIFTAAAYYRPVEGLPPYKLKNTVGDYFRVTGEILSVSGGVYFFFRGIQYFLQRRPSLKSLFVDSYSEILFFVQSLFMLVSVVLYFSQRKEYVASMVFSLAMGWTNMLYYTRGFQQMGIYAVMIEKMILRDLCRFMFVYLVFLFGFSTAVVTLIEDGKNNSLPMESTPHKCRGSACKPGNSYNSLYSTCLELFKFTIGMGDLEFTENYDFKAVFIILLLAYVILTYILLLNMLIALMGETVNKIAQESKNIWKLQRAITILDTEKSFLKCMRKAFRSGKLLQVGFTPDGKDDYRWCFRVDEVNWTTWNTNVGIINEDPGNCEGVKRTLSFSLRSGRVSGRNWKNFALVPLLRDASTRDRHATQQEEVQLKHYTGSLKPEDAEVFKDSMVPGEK

Row | SMILES | mean maximal Ca^2+ signal RFU achieved 0-180 s (SD), TRPV1 | calcium fluxes | initiation of a calcium flux
1 | C=C(C)[C@@H]1CCC(C)=C[C@H]1c1c(O)cc(CCCCC)cc1O [CBD, Cannabidiol] | 11.88 (0.23) RFU |  | 
2 | C=C(C)[C@@H]1CCC(C)=C[C@H]1c1c(O)cc(CCC)cc1O [CBDV, Cannabidivarin] | 6.51 (0.07) RFU |  | 
3 | CCCCCc1cc(O)c(C/C=C(\C)CCC=C(C)C)c(O)c1 [CBG, Cannabigerol] | 0.41 (0.04) RFU | small calcium fluxes | did not initiate a calcium flux
4 | CCCCCc1cc(O)c2c(c1)OC(C)(C)c1ccc(C)cc1-2 [CBN, Cannabinol] | 0.89 (0.08) RFU | small and transient calcium transient fluxes | did not initiate a calcium flux
